Laboratory results reported in US20090159876A1, “ORGANIC SEMICONDUCTOR MATERIAL AND ORGANIC FIELD EFFECT TRANSISTOR” (MITSUBISHI CHEMICAL CORPORATION, priority 2005, published 2009).
Read-outs that look alike come from different tables or passages of the source.

Experiments:
[1] = Evaluation of crystallinity of film by X-ray diffractometry; type: physicochemical; conditions: for Crystallinity of Film: In-Plane X-ray diffractometry of film
Description: X-ray diffractometry was conducted for the oligothiophene film formed of the oligothiophene A (hexamer) prepared in [Evaluation of Ionization Potential] using a RINT-2000/PC available from Rigaku Corporation.

[2] = Evaluation of solubility in specific solvents at 30° C.; type: physicochemical
Description: The oligothiophene A (hexamer) was dissolved in each of toluene, xylene, ethylbenzene, mesitylene, cyclopentanone, cyclohexanone, methyl chloride, carbon tetrachloride, chlorobenzene, dichlorobenzene, trichlorobenzene, nitrobenzene, methyl ethyl ketone, benzoic acid esters, anisole, phenetole, butyl phenyl ether, methoxytoluene, and benzyl ethyl ether at 30° C., and each solubility was determined. […] In Table 1, the mark o indicates the case where the solubilities of 0.1% by weight and 0.3% by weight for each solvent were observed, and the mark X indicates the other case.

[3] = Evaluation of ionization potential of film by photoelectron spectrometer; type: physicochemical; conditions: film spin-coated from chloroform on quartz substrate (α-6T: film deposited under vacuum); solid state
Description: The ionization potential is preferably determined by the method of measuring a sample in a solid state through photoelectron spectroscopy. Examples of the simple devices include a photoelectron spectrometer, model AC-1 (or its successor device) available from Riken Keiki Co., Ltd.
The oligothiophene A (hexamer) (50 mg) prepared in Synthesis 4 was dissolved in chloroform (1 mL) to prepare a solution. This solution was spin-coated on a 2.5 by 2.5 cm^2 quartz substrate available from Furuuchi Chemical Corporation at 1000 rpm. A satisfactory film was produced. The ionization potential (Ip) of this film was determined with a photoelectron spectrometer Model PCR-101 available from Sumitomo Heavy Industries Advanced Machinery. As a reference, an α-6T film deposited on a quartz substrate under vacuum was used (See Comparative Example 1 described below). FIG. 4 is a graph of the ionization potentials observed. The ionization potential (Ip) of the oligothiophene A (hexamer) was 5.34 eV, while that of α-6T was 4.7 eV.

[4] = usual value of representative thiophene materials; cited from earlier work
[5] = 30° C., toluene, xylene, ethylbenzene, mesitylene, cyclopentanone, cyclohexanone and other listed solvents

Row | Compound | Crystallinity of Film [1] | Crystallinity of film (in words) ([1]; In-Plane X-ray diffractometry of spin-coated film) | Solubility in Specific Solvents 0.1% by weight [2, 5] | Solubility in Specific Solvents 0.3% by weight [2, 5] | Ionization Potential [3] [eV] | Solubility in Specific Solvents 0.1% by weight [2] | Solubility in Specific Solvents 0.3% by weight [2] | ionization potential (Ip) [4]
1 | CCCCCCc1ccc(-c2ccc(-c3ccc(-c4sc(-c5cc(-c6ccc(CC)cc6)c(-c6ccc(-c7ccc(-c8ccc(CCCCCC)s8)s7)s6)s5)cc4-c4ccc(CC)cc4)s3)s2)s1 [Example 2] | ◯ | – | – | – | 5.24 | ◯ | ◯ | –
2 | CCCCCCc1ccc(-c2ccc(-c3ccc(-c4ccc(-c5sc(-c6cc(-c7ccc(CC)cc7)c(-c7ccc(-c8ccc(-c9ccc(-c%10ccc(CCCCCC)s%10)s9)s8)s7)s6)cc5-c5ccc(CC)cc5)s4)s3)s2)s1 [Example 3] | ◯ | – | – | – | 5.26 | ◯ | ◯ | –
3 | CCCCCCc1ccc(-c2ccc(-c3ccc(-c4ccc(-c5ccc(-c6sc(-c7cc(-c8ccc(CC)cc8)c(-c8ccc(-c9ccc(-c%10ccc(-c%11ccc(-c%12ccc(CCCCCC)s%12)s%11)s%10)s9)s8)s7)cc6-c6ccc(CC)cc6)s5)s4)s3)s2)s1 [Example 6] | ◯ | – | ◯ | ◯ | 5.18 | – | – | –
4 | CCCCCCc1ccc(-c2cc(-c3ccc(CC)cc3)c(-c3ccc(-c4ccc(-c5ccc(-c6sc(-c7cc(-c8ccc(CC)cc8)c(-c8ccc(-c9ccc(-c%10ccc(-c%11sc(-c%12ccc(CCCCCC)s%12)cc%11-c%11ccc(CC)cc%11)s%10)s9)s8)s7)cc6-c6ccc(CC)cc6)s5)s4)s3)s2)s1 [Example 7] | ◯ | – | – | – | 5.46 | ◯ | ◯ | –
5 | c1csc(-c2ccc(-c3ccc(-c4ccc(-c5ccc(-c6cccs6)s5)s4)s3)s2)c1 [α-6T, α-sezithiophene, reference compound] | ◯ | – | – | – | 4.7 | ◯ | ◯ | about 4.7 eV

Further lines, with some results ahead:

Row | Crystallinity of Film [1] | Crystallinity of film (in words) ([1]; In-Plane X-ray diffractometry of spin-coated film) | Solubility in Specific Solvents 0.1% by weight [2, 5] | Solubility in Specific Solvents 0.3% by weight [2, 5] | Ionization Potential [3] [eV] | Solubility in Specific Solvents 0.1% by weight [2] | Solubility in Specific Solvents 0.3% by weight [2] | Compound | ionization potential (Ip) [4]
6 | ◯ | crystalline semiconductor layer | ◯ | ◯ | 5.34 | – | – | CCCCCCc1ccc(-c2ccc(-c3sc(-c4cc(-c5ccc(CC)cc5)c(-c5ccc(-c6ccc(CCCCCC)s6)s5)s4)cc3-c3ccc(CC)cc3)s2)s1 [Example 1] | –
7 | ◯ | – | – | – | 5.24 | ◯ | ◯ | CCCCCCc1ccc(-c2ccc(-c3ccc(-c4ccc(-c5sc(-c6ccc(CCCCCC)s6)cc5-c5ccc(CC)cc5)s4)s3)s2)s1 [Example 5] | –
